Test results reported in US7119077B1, “Multimeric forms of members of the steroid/thyroid superfamily of receptors with the ultraspiracle receptor” (The Salk Institute for Biological Studies, priority 1990, dated 2006).
Entries after “also recorded” stand apart in the source; their conditions may differ.

What was measured:
[1] = target: T1, EcR/usp (Drosophila melanogaster, UniProt P34021); assay: Cotransfection CAT reporter assay with EcR and/or usp expression vectors in CV1 cells; format: cell-based, monkey kidney cells (CV1); conditions: CV1 cells transfected with EcR alone, ΔMTV-EcRE5-CAT reporter, 40 μM
T1 construct: expressed in transfected cells; host or cells: CV1 monkey kidney cells
T1 sequence (P34021 1-878): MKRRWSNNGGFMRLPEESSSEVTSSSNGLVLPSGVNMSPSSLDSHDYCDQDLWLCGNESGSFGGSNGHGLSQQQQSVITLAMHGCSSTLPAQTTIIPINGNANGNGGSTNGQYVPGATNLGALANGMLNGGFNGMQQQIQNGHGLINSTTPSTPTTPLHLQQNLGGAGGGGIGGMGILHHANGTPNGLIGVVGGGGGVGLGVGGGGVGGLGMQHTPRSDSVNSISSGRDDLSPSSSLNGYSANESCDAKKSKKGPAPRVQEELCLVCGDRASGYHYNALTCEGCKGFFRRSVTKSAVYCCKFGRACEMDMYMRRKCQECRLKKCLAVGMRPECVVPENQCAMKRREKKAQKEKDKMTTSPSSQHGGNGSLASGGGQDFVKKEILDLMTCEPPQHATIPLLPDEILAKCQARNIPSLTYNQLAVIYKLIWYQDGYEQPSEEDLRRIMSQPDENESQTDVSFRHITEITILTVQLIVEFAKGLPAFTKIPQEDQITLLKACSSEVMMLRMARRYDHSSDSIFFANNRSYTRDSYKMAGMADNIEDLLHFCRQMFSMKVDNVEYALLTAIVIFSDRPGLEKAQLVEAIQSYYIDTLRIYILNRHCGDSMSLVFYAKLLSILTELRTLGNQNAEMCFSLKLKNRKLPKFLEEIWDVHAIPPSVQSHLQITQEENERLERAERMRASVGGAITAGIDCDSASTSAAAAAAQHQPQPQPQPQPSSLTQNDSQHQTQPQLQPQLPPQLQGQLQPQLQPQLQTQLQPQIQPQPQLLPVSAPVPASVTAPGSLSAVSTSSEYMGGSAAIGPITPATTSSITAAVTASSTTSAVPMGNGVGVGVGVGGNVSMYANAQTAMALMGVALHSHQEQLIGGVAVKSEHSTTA
Experimental: (§1) Transfection was performed with calcium-phosphate precipitation method as described previously [Umesono et al., Nature 336:262–264 (1989)]. CV1 monkey kidney cells were maintained in Dulbecco's modified Eagle's medium (DMEM) supplemented with 10% calf bovine serum. The cells were transfected for 8–9 hours and then the DNA precipitates were washed away and replaced with fresh medium with 10% charcoal-resin double stripped fetal bovine serum. 20-hydroxy-ecdysone (Sigma; 10 mg/ml in ethanol), or ethanol alone was then given to the cells. 24–28 hours later, the cells were harvested. Beta-galactosidase (βGal) activity was measured and a normalized amount of extract was used for CAT assay (Umesono et al. (1989) supra]. The following amount of plasmid DNA was included in the 10 cm plate transfection: 250 ng each of CMX-EcR and RSV-GEcR; 500 ng of CMX-usp; 5 μg ΔMTV-EcRE5-CTA; 5 μg of βGal internal control plasmid CH111 (a derivative of CH110, Promega). The amount of CMX plasmid was kept constant in each transfection by adding CMX-luciferase. PGEM4 was added to bring the total amount of plasmid DNA to 15 μg per plate.
(§2) Ecdysone response in CV1 cells was determined by using an ecdysone-responsive reporter gene (ΔMTV-EcRE5-CAT), which contains the same core hsp27-EcRE motif tested in DNA binding assay described earlier. The chloramphenicol acetyl transferase (CAT) activity induced by ecdysone was measured in the presence of different combinations of transfected EcR and usp expression vectors. CAT activity is expressed in FIG. 2 as the percentage of conversion which is normalized against the level in EcR alone at the presence of ecdysone assigned as one (column 1, shaded rectangle). The final concentration of 20-hydroxy-ecdysone (Sigma) is 40 μM. […] Cotransfection of EcR and usp together is shown in column 3 and the induction of CAT activity could be observed by about 3 fold.
(§3) To test whether usp can complement the EcR activity as it did in the DNA binding assay, usp expression vector was cotransfected with EcR into CV1 cells. Cotransfection of usp with EcR indeed was able to confer a significant response to 20-OH-ecdysone (over 3 fold, FIG. 2A). […] The level of induction by EcR and usp in CV1 cells is significant but somewhat lower than expected compared with the interaction in DNA binding assay.

[2] = tested on: EcR/usp; assay: as above; format: cell-based, monkey kidney cells (CV1); conditions: 40 μM
Experimental: as §1, §2, §3

Question: How did the “ecdysone responsiveness (CAT activity)” value [1] turn out when 20-Hydroxyecdysone [20-OH-ecdysone] was run?
Answer: does not respond

Question: And the “ecdysone responsiveness (CAT activity)” value ([1]; listed as 20-hydroxy-ecdysone)?
Answer: failed to confer responsiveness

Question: What about the “ecdysone responsiveness (CAT activity)” value ([2]; CV1 cells transfected with usp alone, ΔMTV-EcRE5-CAT reporter) of the same substance?
Answer: does not respond; also recorded: did not result in ecdysone responsiveness

Question: What about the “ecdysone responsiveness (CAT activity)” value ([2]; CV1 cells, parental ΔMTV-CAT reporter without EcRE) of the same substance?
Answer: did not result in ecdysone responsiveness

Question: What about the “ecdysone responsiveness (CAT activity)” value ([2]; CV1 cells, parental ΔMTV-CAT reporter without EcRE, listed as ecdysone) of the same substance?
Answer: does not respond
